In general, EC50 refers to the concentration giving half of the maximal effect.

Where two headings read alike, the source gives them in different places.

EC50 data for 26 compounds are collected here from US11498903B2 (BRISTOL-MYERS SQUIBB COMPANY, priority 2017, dated 2022).

This experiment addresses T1, human APJ receptor (Homo sapiens, UniProt P35414).
T1 construct: expressed in transfected cells
T1 sequence (P35414 1-380): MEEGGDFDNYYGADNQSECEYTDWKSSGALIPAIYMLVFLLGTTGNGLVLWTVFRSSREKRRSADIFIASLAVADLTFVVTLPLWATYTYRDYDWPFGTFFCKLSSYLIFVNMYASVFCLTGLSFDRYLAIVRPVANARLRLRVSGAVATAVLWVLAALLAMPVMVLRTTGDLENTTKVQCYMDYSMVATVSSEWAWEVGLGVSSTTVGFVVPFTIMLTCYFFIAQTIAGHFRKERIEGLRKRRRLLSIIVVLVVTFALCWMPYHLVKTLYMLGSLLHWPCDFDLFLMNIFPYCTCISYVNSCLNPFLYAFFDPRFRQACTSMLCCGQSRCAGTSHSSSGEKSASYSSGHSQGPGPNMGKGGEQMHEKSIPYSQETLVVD
The experiment in a line: Intracellular cAMP accumulation assay (APJ hcAMP, HTRF). Type of experiment: cell-based. A digest of the protocol: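 HEK293 cells stably expressing human APJ, 5,000/well, incubated 30 min at room temperature with compound plus […] and 2 μM forskolin. cAMP read by HTRF against a cAMP standard curve; EC50 from variable-slope sigmoidal fit, Ymax as % of (Pyr1)apelin-13 inhibition.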

Setting [1] is: Table 1, HEK293 cells stably expressing human APJ receptor, inhibition of forskolin-mediated cAMP production, read-out: APJ hcAMP EC50.
The mark [2] stands for this setting: human APJ, cAMP, potency range class, read-out: APJ cAMP Human EC50.
Where [3] appears, read: Table 3, HEK293 cells stably expressing human APJ receptor, read-out: APJ cAMP Human EC50.
[4] abbreviates: Table 2, HEK293 cells stably expressing human APJ receptor, read-out: APJ cAMP Human EC50.

In the case of `CCCC(NC(=O)c1ccc(-c2cc(Cl)ccc2-c2nc3ccccc3[nH]2)c(C(=O)O)c1)c1ccccc1OC` (stereo not shown) [Example 207, 2′-(1H-1,3-benzodiazol-2-yl)-5′-chloro-4-{[1-(2-methoxyphenyl)butyl]carbamoyl}-[1,1′-biphenyl]-2-carboxylic acid], the EC50 under setting [1] was under 10 nM and the concentration for a half-maximal effect (EC50) under setting [2] is under 10 nM.

`CCC[C@@H](NC(=O)c1ccc(-c2c(Cl)cccc2-c2ncc(-c3ccccc3)[nH]2)c(C(=O)O)c1)c1ccccc1` (atropisomer, axis not shown) [Example 102, (S)-2′-chloro-6′-(5-phenyl-1H-imidazol-2-yl)-4-{[(1R)-1-phenylbutyl]carbamoyl}-[1,1′-biphenyl]-2-carboxylic acid]: the half-maximal effective concentration (EC50) under setting [1] was under 10 nM and the EC50 under setting [3] is under 10 nM.

Regarding `CCCC(NC(=O)c1ccc(-c2c(Cl)cccc2-c2nc3ccccc3[nH]2)c(C(=O)O)c1)c1cncs1` [Example 194, (S)-2′-(1H-1,3-benzodiazol-2-yl)-6′-chloro-4-{[1-(1,3-thiazol-5-yl)butyl]carbamoyl}-[1,1′-biphenyl]-2-carboxylic acid], the EC50 is, setting by setting: under setting [1], 10 to 100 nM; under setting [2], 10 to 100 nM.

Take `CCC[C@@H](NC(=O)c1ccc(-c2c(C)cccc2-c2nc3cnccc3[nH]2)c(C(=O)O)c1)c1ccccc1` [Example 149, 2′-{1H-imidazo[4,5-c]pyridin-2-yl}-6′-methyl-4-{[(1R)-1-phenylbutyl]carbamoyl}-[1,1′-biphenyl]-2-carboxylic acid]: under setting [3], the EC50 was under 10 nM.

On to `CCC[C@@H](NC(=O)c1ccc(-c2c(F)cccc2-c2nc3cc(OC)ccc3[nH]2)c(C(=O)O)c1)c1ccccc1` [Example 143, 2′-fluoro-6′-(5-methoxy-1H-1,3-benzodiazol-2-yl)-4-{[(1R)-1-phenylbutyl]carbamoyl}-[1,1′-biphenyl]-2-carboxylic acid], for which the EC50 under setting [3] is under 10 nM.

`COc1cc2nc(-c3cccc(Cl)c3-c3ccc(C(=O)N[C@H](c4ccccc4)C4CC4)cc3C(=O)O)[nH]c2cc1F` (single isomer, unassigned) [Example 234]: the EC50 was under 10 nM under setting [1] and under 10 nM under setting [2].

Turning to `CCCC(NC(=O)c1ccc(-c2c(Cl)cccc2-c2nc3cc(OC)c(F)cc3[nH]2)c(C(=O)O)c1)C1CCCC1` (single isomer, unassigned) [Example 195], the concentration giving a half-maximal response (EC50) under setting [1] was under 10 nM and the EC50 under setting [2] was under 10 nM.

On to `CCC[C@@H](NC(=O)c1ccc(-c2c(Cl)cccc2-c2nc3cc(Cl)c(F)cc3[nH]2)c(C(=O)OC)c1)c1ccccc1` (atropisomer, axis not shown) [Example 86, (S)-methyl 2′-chloro-6′-(5-chloro-6-fluoro-1H-1,3-benzodiazol-2-yl)-4-{[(1R)-1-phenylbutyl]carbamoyl}-[1,1′-biphenyl]-2-carboxylate], for which the EC50 under setting [3] lay within 101 to 500 nM.

For `O=C(NC(c1ccc(Cl)cc1)C1CC1)c1ccc(-c2c(Cl)cccc2-c2nc3ccccc3[nH]2)c(C(=O)O)c1` (single isomer, unassigned) [Example 224], the EC50 by setting is: under setting [1], under 10 nM; under setting [2], under 10 nM.

Consider `CC[C@H](NC(=O)c1ccc(-c2c(Cl)cccc2-c2nc3ccccc3[nH]2)c(C(=O)O)c1)c1ccc(Cl)cc1OC` [Example 170, (S)-2′-(1H-1,3-benzodiazol-2-yl)-6′-chloro-4-{[1-(4-chloro-2-methoxyphenyl)propyl]carbamoyl}-[1,1′-biphenyl]-2-carboxylic acid], for which the concentration for a half-maximal effect (EC50) by setting is: under setting [1], under 10 nM; under setting [2], under 10 nM.

Regarding `CCCC(NC(=O)c1ccc(-c2c(Cl)cccc2-c2nc3ccccc3[nH]2)c(C(=O)O)c1)c1ccncc1` (single isomer, unassigned) [Example 168], the half-maximal effective concentration (EC50) under setting [1] is under 10 nM and the concentration giving a half-maximal response (EC50) under setting [2] was under 10 nM.

In the case of `COc1cc2[nH]c(-c3cccc(Cl)c3-c3ccc(C(=O)N4CCC(c5ccccc5)CC4)cc3C(=O)O)nc2cc1F` [Example 110, (S)-2′-chloro-6′-(5-fluoro-6-methoxy-1H-1,3-benzodiazol-2-yl)-4-(4-phenylpiperidine-1-carbonyl)-[1,1′-biphenyl]-2-carboxylic acid], the EC50 runs as follows: under setting [1], under 10 nM; under setting [3], under 10 nM.

With `C[C@@H](NC(=O)c1ccc(-c2cc(Cl)ccc2-c2nc3ccccc3[nH]2)c(C(=O)O)c1)c1cccc2ccccc12` [Example 73, 2′-(1H-1,3-benzodiazol-2-yl)-5′-chloro-4-{[(1R)-1-(naphthalen-1-yl)ethyl]carbamoyl}-[1,1′-biphenyl]-2-carboxylic acid], the EC50 was in the range of 10 to 100 nM under setting [1] and 10 to 100 nM under setting [4].

For `CCC[C@H](NC(=O)c1ccc(-c2c(Cl)cccc2-c2nc3cc(OC)c(F)cc3[nH]2)c(C(=O)O)c1)c1ccc(Cl)cc1` (single isomer, unassigned) [Example 236], the EC50 is, setting by setting: under setting [1], under 10 nM; under setting [2], under 10 nM.

For the compound “(S)-2′-chloro-4-{[(1R)-1-cyclohexylbutyl]carbamoyl}-6′-(6-fluoro-5-methoxy-1H-1,3-benzodiazol-2-yl)-[1,1′-biphenyl]-2-carboxylic acid [Example 160]”, the concentration giving a half-maximal response (EC50) is under 10 nM under setting [1] and under 10 nM under setting [2].

Take `CCC[C@@H](NC(=O)c1ccc(-c2c(Cl)cccc2-c2nc3cc(OC)ccc3[nH]2)c(C(=O)O)c1)C1CCCCC1` (single isomer, unassigned) [Example 231]: the 50% effective concentration (EC50) by setting is: under setting [1], under 10 nM; under setting [2], under 10 nM.

As for `CCC[C@@H](NC(=O)c1ccc(-c2ccc(Cl)cc2-c2nc3ccccc3[nH]2)c(C(=O)O)c1)c1ccccc1` [Example 54, 2′-(1H-1,3-benzodiazol-2-yl)-4′-chloro-4-{[(1R)-1-phenylbutyl]carbamoyl}-[1,1′-biphenyl]-2-carboxylic acid], the EC50 reads like this: under setting [1], 10 to 100 nM; under setting [4], 10 to 100 nM.

As for `CCC[C@@H](NC(=O)c1ccc(-c2c(Cl)cccc2-c2nc3cc(Cl)c(F)cc3[nH]2)c(C(=O)O)c1)c1ccccc1` (atropisomer, axis not shown) [Example 85, (S)-2′-chloro-6′-(5-chloro-6-fluoro-1H-1,3-benzodiazol-2-yl)-4-{[(1R)-1-phenylbutyl]carbamoyl}-[1,1′-biphenyl]-2-carboxylic acid], the half-maximal effective concentration (EC50) under setting [3] is under 10 nM.

In the case of `CCC[C@H](NC(=O)c1ccc(-c2c(Cl)cccc2-c2nc3ccccc3[nH]2)c(C(=O)O)c1)c1ccccc1OC(F)(F)F` (single isomer, unassigned) [Example 176], the EC50 was under 10 nM under setting [1] and under 10 nM under setting [2].

Take `CCCC(NC(=O)c1ccc(-c2c(Cl)cccc2-c2nc3ccccc3[nH]2)c(C(=O)O)c1)c1ccccc1C(F)(F)F` (single isomer, unassigned) [Example 189]: the half-maximal effective concentration (EC50) runs as follows: under setting [1], 10 to 100 nM; under setting [2], 10 to 100 nM.

In the case of `CCC[C@@H](NC(=O)c1cc(C(=O)O)c(-c2cc(Cl)ccc2-c2nc3ccccc3[nH]2)cc1C)c1ccccc1` [Example 11, (R)-2′-(1H-benzo[d]imidazol-2-yl)-5′-chloro-5-methyl-4-((1-phenylbutyl)carbamoyl)-[1,1′-biphenyl]-2-carboxylic acid], the EC50 under setting [1] is under 10 nM and the EC50 under setting [4] was under 10 nM.

On to `CCC[C@@H](NC(=O)c1ccc(-c2c(Cl)cccc2-c2nc3ccccc3[nH]2)c(-c2n[nH]c(=O)o2)c1)c1ccccc1` [Example 129, 2′-(1H-1,3-benzodiazol-2-yl)-6′-chloro-2-(5-oxo-4,5-dihydro-1,3,4-oxadiazol-2-yl)-N-[(1R)-1-phenylbutyl]-[1,1′-biphenyl]-4-carboxamide], for which the EC50 under setting [3] was 10 to 100 nM.

As for `CCC[C@H](NC(=O)c1ccc(-c2c(Cl)cccc2-c2nc3cc(OC)c(F)cc3[nH]2)c(CO)c1)c1ccccc1` (stereo in doubt) [Example 131, (S)-2′-chloro-6′-(6-fluoro-5-methoxy-1H-1,3-benzodiazol-2-yl)-2-(hydroxymethyl)-N-(1-phenylbutyl)-[1,1′-biphenyl]-4-carboxamide], the EC50 under setting [3] lay in the range of 10 to 100 nM.

Consider `CCC[C@@H](NC(=O)c1ccc(-c2cc(Cl)ccc2-c2nc3ncc(C)cc3[nH]2)c(C(=O)O)c1)c1ccccc1` [Example 23, 5′-chloro-2′-{6-methyl-1H-imidazo[4,5-b]pyridin-2-yl}-4-{[(1R)-1-phenylbutyl]carbamoyl}-[1,1′-biphenyl]-2-carboxylic acid], for which the half-maximal effective concentration (EC50) is 10 to 100 nM under setting [1] and 10 to 100 nM under setting [4].

With `CCC[C@@H](NC(=O)c1ccc(-c2c(Cl)cccc2-c2nc3cc(F)c(F)cc3[nH]2)c(C(=O)O)c1)C1CCCCC1` (atropisomer, axis not shown) [Example 162, (S)-2′-chloro-4-{[(1R)-1-cyclohexylbutyl]carbamoyl}-6′-(5,6-difluoro-1H-1,3-benzodiazol-2-yl)-[1,1′-biphenyl]-2-carboxylic acid], the EC50 runs as follows: under setting [1], under 10 nM; under setting [2], under 10 nM.

With `CCCC(NC(=O)c1ccc(-c2cc(Cl)ccc2-c2nc3cc(C(C)(C)C)ccc3[nH]2)c(C(=O)OC)c1)c1ccccc1OC` (stereo not shown) [Example 203, methyl 2′-(5-tert-butyl-1H-1,3-benzodiazol-2-yl)-5′-chloro-4-{[1-(2-methoxyphenyl)butyl]carbamoyl}-[1,1′-biphenyl]-2-carboxylate], the half-maximal effective concentration (EC50) fell in the range of 10 to 100 nM under setting [1] and 10 to 100 nM under setting [2].
